Laboratory results published in PubChem BioAssay (NCI).
Where “and” joins values, the source holds several entries; their conditions need not be identical. Equal values may be shown once.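 Five concentrations, 48 hours, 96-well plates. GI50: concentration for 50% inhibition of growth. TGI: total growth inhibition.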

How the values were obtained:
Assay in all cases: NCI-60 cell line screen, 48 h
CAKI-1 renal = tested on: CAKI-1 renal
HOP-92 NSCLC = tested on: HOP-92 NSCLC
IGROV1 ovarian = tested on: IGROV1 ovarian
LOX IMVI melanoma = tested on: LOX IMVI melanoma
MCF7 breast = tested on: MCF7 breast
SK-MEL-2 melanoma = tested on: SK-MEL-2 melanoma
SK-MEL-28 melanoma = tested on: SK-MEL-28 melanoma
SR leukemia = tested on: SR leukemia
UACC-62 melanoma = tested on: UACC-62 melanoma
UO-31 renal = tested on: UO-31 renal

| SMILES | TGI (CAKI-1 renal) | TGI (HOP-92 NSCLC) | TGI (IGROV1 ovarian) | TGI (LOX IMVI melanoma) [µM] | TGI (MCF7 breast) [µM] | TGI (SK-MEL-2 melanoma) [µM] | TGI (SK-MEL-28 melanoma) [µM] | TGI (SR leukemia) [µM] | TGI (UACC-62 melanoma) [µM] | TGI (UO-31 renal) [µM] | GI50 (CAKI-1 renal) [µM] | GI50 (HOP-92 NSCLC) [µM] | GI50 (IGROV1 ovarian) | GI50 (LOX IMVI melanoma) [µM] | GI50 (MCF7 breast) [µM] | GI50 (SK-MEL-2 melanoma) [µM] | GI50 (SK-MEL-28 melanoma) [µM] | GI50 (SR leukemia) [µM] | GI50 (UACC-62 melanoma) [µM] | GI50 (UO-31 renal) [µM] |
| --- | --- | --- | --- | --- | --- | --- | --- | --- | --- | --- | --- | --- | --- | --- | --- | --- | --- | --- | --- | --- |
| CC1OC(OC2C(OC3CCC4(C)C(CCC5(C)C4CC=C4C6CC(C)(C)CCC6(C(=O)O)CCC45C)C3(C)CO)OCC(O)C2O)C(O)C(O)C1O (stereo unspecified) | 36.6 µM | 27.3 µM | 32.9 µM | 53.5 | 1.91 | 33.3 | 39.8 | 9.74 | 26.1 | 13.1 | – | – | – | – | – | – | – | – | – | – |
| CCCCCCCCn1ccc2cc(NC(=O)Cn3cc(CN4CCCCC4)nn3)ccc21 | 2.99 µM | 2.21 µM | 3.97 µM | 3.17 | 4.29 | 3.68 | 3.29 | > 100 | 3.51 | 2.62 | 1.52 | 0.601 | 1.88 µM | 1.63 | 1.85 | 1.9 | 1.75 | 1.67 | 1.81 | 1.34 |
| COc1cc(-c2c(C#N)c(N)nc(N3CCOCC3)c2C#N)cc(OC)c1OC | > 100 µM | > 100 µM | > 100 µM | > 100 | > 100 | > 100 | > 100 | 40.2 | > 100 | > 100 | > 100 | 35.9 | 92.1 µM | 79.7 | > 100 | > 100 | > 100 | 13.4 | 36.9 | 96.1 |
| CC(=O)OC12COC1CC(O)C1(C)C(=O)C(O)C3=C(C)C(O)CC(O)(C(OC(=O)c4ccccc4)C21)C3(C)C (stereo unspecified) | > 100 µM | > 100 µM | > 100 µM | > 100 | > 100 | 6.51 | > 100 | > 100 | > 100 | > 100 | – | – | – | – | – | 1.84 | – | – | – | – |
| O=C1c2cccc(NCCN=Cc3ccccc3O)c2C(=O)c2c(NCCN=Cc3ccccc3O)cccc21 | 4.82 µM | 2.49 µM | 0.504 µM | 2.44 | 1.08 | 3.67 | 3.37 | – | 4.86 | 3.06 | 0.953 | 0.584 | 0.237 µM | 0.534 | 0.279 | 1.2 | 1.54 | 0.363 | 1.59 | 0.596 |
| COc1ccc(C2C(C)C(=O)C(C)C(c3ccc(OC)cc3)N2N=O)cc1 (stereo unspecified) | 750 µM and 577 µM | > 80.9 µM and 190 µM and 149 µM | 391 µM and 656 µM | > 1000 | > 1000 | 602 | > 1000 | > 1000 | > 750 | > 1000 | 50.1 | > 47.9 | > 90.8 µM and 138 µM | > 750 | – | – | > 750 | – | > 750 | – |
